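Method: 48-hour compound exposure of cells in 96-well plates, five concentrations, linear interpolation of endpoints. Abbreviation: GI50, concentration required for 50% inhibition of growth.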 The source made the active and inactive calls. Cut-off read from the data, not from the text of the source: active = GI50 up to about 1.1 µM and inactive = higher.
Assays:
Assay in all cases: NCI anticancer screen, dose series, 48 h
786-0 = system: 786-0
A549 = system: A549
CAKI-1 = system: CAKI-1
HCT-15 = system: HCT-15
HOP-62 = system: HOP-62
LOX IMVI = system: LOX IMVI
NCI-H226 = system: NCI-H226
NCI-H522 = system: NCI-H522
NCI/ADR-RES = system: NCI/ADR-RES
OVCAR-3 = system: OVCAR-3
OVCAR-4 = system: OVCAR-4
OVCAR-5 = system: OVCAR-5
RXF 393 = system: RXF 393
SK-MEL-5 = system: SK-MEL-5
SNB-19 = system: SNB-19
SR = system: SR
SW-620 = system: SW-620
T47D = system: T47D
U-251 = system: U-251
CCRF-CEM = system: CCRF-CEM

Row | Structure (SMILES) | GI50 (786-0) | GI50 (A549) | GI50 (CAKI-1) | GI50 (HCT-15) [µM] | GI50 (HOP-62) | GI50 (LOX IMVI) | GI50 (NCI-H226) | GI50 (NCI-H522) | GI50 (NCI/ADR-RES) | GI50 (OVCAR-3) | GI50 (OVCAR-4) | GI50 (OVCAR-5) | GI50 (RXF 393) | GI50 (SK-MEL-5) | GI50 (SNB-19) | GI50 (SR) | GI50 (SW-620) | GI50 (T47D) | GI50 (U-251) | GI50 (CCRF-CEM)
1 | NS(=O)(=O)c1nnc(NS(=O)(=O)c2ccc(Cl)cc2)s1 | > 100 µM (inactive) | > 100 µM (inactive) | > 100 µM (inactive) | > 100 | > 100 µM (inactive) | > 100 µM (inactive) | > 100 µM (inactive) | > 100 µM (inactive) | > 100 µM (inactive) | > 100 µM (inactive) | > 100 µM (inactive) | > 100 µM (inactive) | > 100 µM (inactive) | > 100 µM (inactive) | > 100 µM (inactive) | > 100 µM (inactive) | > 100 µM (inactive) | > 100 µM (inactive) | > 100 µM (inactive) | 
2 | CC(C)CC1NC(=O)CCC(NC(=O)C(Cc2ccc(O)cc2)NC(=O)OCc2ccccc2)C(=O)NC(Cc2ccccc2)C(=O)NC(Cc2ccccc2)NC1=O (stereo not drawn) | > 100 µM (inactive) | > 100 µM (inactive) | > 100 µM (inactive) | > 100 | > 100 µM (inactive) | > 100 µM (inactive) | > 100 µM (inactive) |  | > 100 µM (inactive) | > 100 µM (inactive) | > 100 µM (inactive) | > 100 µM (inactive) | > 100 µM (inactive) | > 100 µM (inactive) | 56.6 µM (inactive) | > 100 µM (inactive) | > 100 µM (inactive) | > 100 µM (inactive) | > 100 µM (inactive) | > 100 µM (inactive)
3 | O=C(Cc1ccccc1)NNc1nc(NNC(=O)c2ccncc2)nc(Nc2cccc(Cl)c2)n1 | > 10 µM (inactive) | > 10 µM (inactive) | > 10 µM (inactive) | > 10 | > 10 µM (inactive) | > 10 µM (inactive) |  |  | > 10 µM (inactive) |  | > 10 µM (inactive) |  |  | > 10 µM (inactive) |  | > 10 µM (inactive) | > 10 µM (inactive) | > 10 µM (inactive) | > 10 µM (inactive) | > 10 µM (inactive)
4 | CCN(CC)CCCNc1nc2ccccc2[n+]([O-])n1 | > 100 µM (inactive) | > 100 µM (inactive) | > 100 µM (inactive) | > 100 |  |  | > 100 µM (inactive) | > 100 µM (inactive) | > 100 µM (inactive) | > 100 µM (inactive) | > 100 µM (inactive) | > 100 µM (inactive) | > 100 µM (inactive) | > 100 µM (inactive) | > 100 µM (inactive) | > 100 µM (inactive) | > 100 µM (inactive) | > 100 µM (inactive) | > 100 µM (inactive) | > 100 µM (inactive)
5 | O=C1c2ccccc2-c2nc(-c3cccc([N+](=O)[O-])c3)nnc21 | 30.5 µM (inactive) | 4.62 µM (inactive) | 4.24 µM (inactive) | 15.7 |  |  | 7.91 µM (inactive) | 26.5 µM (inactive) | 13.4 µM (inactive) |  | 15.4 µM (inactive) | 20.1 µM (inactive) | 24.3 µM (inactive) | 2.69 µM (inactive) | 13.9 µM (inactive) | 1.11 µM (active) | 15.8 µM (inactive) | 44.5 µM (inactive) | 4.5 µM (inactive) | 7.14 µM (inactive)
6 | O=C1C=C(c2ccccc2)O/C1=C\C(=O)c1ccc(Cl)cc1 | 14.3 µM (inactive) |  | 18.1 µM (inactive) | 17.5 | > 100 µM (inactive) | 16.3 µM (inactive) | 17.4 µM (inactive) | 20.7 µM (inactive) | 23.2 µM (inactive) | 22.1 µM (inactive) | 21.9 µM (inactive) | 24.3 µM (inactive) | 17.7 µM (inactive) | 21.5 µM (inactive) | > 100 µM (inactive) | 11.3 µM (inactive) | 1.73 µM (inactive) | 23.3 µM (inactive) | 16.3 µM (inactive) | 
7 | CCOC(=O)c1c(SCCN2CCCCC2)n(-c2ccccc2)c(=S)n(-c2ccccc2)c1=O | 14.8 µM (inactive) | > 54 µM (inactive) |  | 4.29 | 14 µM (inactive) | 12.8 µM (inactive) | 12.3 µM (inactive) | 16.7 µM (inactive) | 21.2 µM (inactive) | 9.57 µM (inactive) | 17.6 µM (inactive) | > 100 µM (inactive) | 13 µM (inactive) | 15.6 µM (inactive) | > 78.3 µM (inactive) | 2.72 µM (inactive) | 3.79 µM (inactive) | 4.6 µM (inactive) | 28.6 µM (inactive) | 2.99 µM (inactive)
8 | COC(=O)c1cc(C#Cc2cc(OC)ccc2OC)ccc1OC | 51.3 µM (inactive) | 34.8 µM (inactive) | 60 µM (inactive) | 40.3 |  | 32.1 µM (inactive) | 67 µM (inactive) | 37.8 µM (inactive) | 47.5 µM (inactive) |  | 46.7 µM (inactive) | > 100 µM (inactive) | 21.3 µM (inactive) | 24.4 µM (inactive) | > 100 µM (inactive) | 26.8 µM (inactive) | > 100 µM (inactive) | 2.04 µM (inactive) | 95.1 µM (inactive) | 
9 | COC1OC2COC1(OCc1ccccc1)C1OC(C)(C)OC21 (stereo not drawn) | > 100 µM (inactive) | > 100 µM (inactive) | > 100 µM (inactive) | > 100 | > 100 µM (inactive) |  | > 100 µM (inactive) | > 100 µM (inactive) | > 100 µM (inactive) | > 100 µM (inactive) | > 100 µM (inactive) | > 100 µM (inactive) | > 100 µM (inactive) | > 100 µM (inactive) | > 100 µM (inactive) | > 100 µM (inactive) | > 100 µM (inactive) | > 100 µM (inactive) | > 100 µM (inactive) | > 100 µM (inactive)
10 | O=C1OCCC12CN(Cc1ccccc1)N=N2 (stereo not drawn) | > 100 µM (inactive) | > 100 µM (inactive) | 58.7 µM (inactive) | > 100 | > 100 µM (inactive) |  |  | 49.9 µM (inactive) | > 100 µM (inactive) | > 100 µM (inactive) | > 100 µM (inactive) | > 100 µM (inactive) | > 100 µM (inactive) | > 100 µM (inactive) | > 100 µM (inactive) | 13.2 µM (inactive) | > 100 µM (inactive) | > 100 µM (inactive) | > 100 µM (inactive) | 
11 | CC(Oc1ccccc1Cl)C(=O)NN1C(=O)CC(=O)NC1=S (stereo not drawn) | > 100 µM (inactive) | > 100 µM (inactive) | > 100 µM (inactive) | > 100 | > 100 µM (inactive) | 61.9 µM (inactive) | > 100 µM (inactive) | > 100 µM (inactive) | > 100 µM (inactive) | > 100 µM (inactive) | > 100 µM (inactive) | > 100 µM (inactive) | > 100 µM (inactive) | > 100 µM (inactive) | > 100 µM (inactive) | > 100 µM (inactive) | > 100 µM (inactive) | 36.6 µM (inactive) | > 100 µM (inactive) | 
12 | C/C(=C\COc1cc(O)c2c(c1)C(=O)c1cc(C)cc(O)c1C2=O)CCC1OC1(C)C (stereo not drawn) | 58.2 µM (inactive) | 85.5 µM (inactive) | 21 µM (inactive) | 84.3 | 46 µM (inactive) | > 100 µM (inactive) |  | 69.8 µM (inactive) | > 100 µM (inactive) | > 100 µM (inactive) | 37.8 µM (inactive) | > 100 µM (inactive) | 30.2 µM (inactive) | 31.2 µM (inactive) | > 100 µM (inactive) | 13.9 µM (inactive) | > 10 µM (inactive) | 49.4 µM (inactive) | 63.8 µM (inactive) | 11.2 µM (inactive)
13 | Clc1ccc(-c2cn3c(nc4ccccc43)c(/C=C/c3ccco3)n2)cc1 | 30.3 µM (inactive) | 46.6 µM (inactive) |  | 57.5 | 42.5 µM (inactive) | 33 µM (inactive) | > 100 µM (inactive) |  | 42.1 µM (inactive) | 34.4 µM (inactive) | 25.3 µM (inactive) | > 100 µM (inactive) | 33.7 µM (inactive) | 33.9 µM (inactive) | 41.4 µM (inactive) | 17.9 µM (inactive) | 36.8 µM (inactive) | 22.9 µM (inactive) | 28.2 µM (inactive) | 
14 | C[C@H]1C[C@H]2[C@@H]3C(C)(C)O[C@]4(O)C(=O)[C@]5(O)[C@@H](C)CC[C@H]1[C@]25C(=O)[C@]34C | 75.5 µM (inactive) | 41.6 µM (inactive) | 39.4 µM (inactive) | 33.9 | 47.1 µM (inactive) | 36.1 µM (inactive) | 31.3 µM (inactive) | 18 µM (inactive) | 39.3 µM (inactive) | 27.4 µM (inactive) |  | 65.2 µM (inactive) |  | 28.4 µM (inactive) | > 100 µM (inactive) | 40.1 µM (inactive) | 79.6 µM (inactive) | 25.2 µM (inactive) | 60.3 µM (inactive) | 36.6 µM (inactive)
15 | COc1cc(OC)c2c(O)c(S(=O)(=O)c3ccc(C)cc3)c(=O)oc2c1 | > 100 µM (inactive) | > 100 µM (inactive) | > 100 µM (inactive) | > 100 |  |  | > 100 µM (inactive) | > 100 µM (inactive) | > 100 µM (inactive) | > 100 µM (inactive) | > 100 µM (inactive) | > 100 µM (inactive) | > 100 µM (inactive) | > 100 µM (inactive) | 93.3 µM (inactive) | > 100 µM (inactive) | > 100 µM (inactive) | > 100 µM (inactive) | 96.6 µM (inactive) | 78.2 µM (inactive)

From ChEMBL document CHEMBL1201862, “PubChem BioAssay data set” (2004)
